Data: patent US10995052B2, “Biaromatic propynyl compounds, pharmaceutical and cosmetic compositions containing same, and uses thereof” (GALDERMA RESEARCH & DEVELOPMENT, priority 2016, dated 2021)

Tests used:
Assay in all cases: Transactivation test in HeLa cells (luciferase reporter), apparent Kd by Schild regression
Format in all cases: cell-based
[1] = biological target: T1, RAR beta (Homo sapiens, UniProt P10826); settings: stably transfected HeLa cells, versus reference antagonist, 18 hours incubation, read-out: RAR beta Kdapp
T1 sequence (P10826 183-417 limits assumed): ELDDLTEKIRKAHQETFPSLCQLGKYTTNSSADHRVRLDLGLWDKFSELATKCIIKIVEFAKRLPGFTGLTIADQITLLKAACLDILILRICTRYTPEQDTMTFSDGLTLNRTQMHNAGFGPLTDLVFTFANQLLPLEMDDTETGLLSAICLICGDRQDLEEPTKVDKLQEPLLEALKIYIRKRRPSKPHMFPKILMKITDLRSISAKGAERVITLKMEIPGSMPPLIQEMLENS
Description: (§1) Activation of receptors by an agonist (activator) in HeLa cells leads to the expression of a reporter gene, luciferase, which generates light in the presence of a substrate. Therefore the activation of receptors can be measured by quantifying the luminescence produced after incubation of the cells in the presence of a reference antagonist. The activator products displace the antagonist from its site, thus permitting the receptor to be activated. The activity is measured by quantifying the increase in light produced. This measurement determines the activating activity of the useful compound in the invention.
(§2) In this study, a constant is determined that represents the affinity of the molecule for the receptor. This value can fluctuate according to the basal activity and expression of the receptor; it is designated apparent Kd (KdApp). […]
(§3) Full agonist controls, also called 100% controls, (4-[2-(5,5,8,8 tetramethyl-5,6,7,8 tetrahydronaphthalene-2-yl)propenyl]-benzoic acid) and inverse agonist controls, also called 0% controls, (4-{(E)-3-[4-(4-tert-butyl-phenyl)-5,5,8,8-tetramethyl-5,6,7,8-tetrahydro-naphthalen-2-yl]-3-oxo-propenyl}-benzoic acid) are also measured.
(§4) These cross curves allow determining the AC50 (concentration at which 50% activation of the receptor is observed) of the reference ligand at different concentrations of the product to be tested. These AC50s are used to calculate the Schild regression by plotting a line conforming to the Schild equation (“Quantitation in receptor pharmacology” Terry P. Kenakin, Receptors and Channels, 2001, 7, 371-385).
(§5) In the case of an […], the AC50 is calculated by plotting the curve of the product at the concentration of the reference ligand giving 80% activation. The percentage of activation that corresponds to the maximum level of activity obtained is also measured. […]
(§6) The culture medium is removed by turning over and 100 μl of a 1:1 PBS (phosphate buffer solution)/luciferin mixture is added to each well. After 5 minutes, the plates are read by the luminescence reader.

[2] = biological target: T2, RAR gamma (Homo sapiens, UniProt P13631); settings: stably transfected HeLa cells, versus reference antagonist, 18 hours incubation, read-out: RAR gamma Kdapp
T2 sequence (P13631 178-423 limits assumed): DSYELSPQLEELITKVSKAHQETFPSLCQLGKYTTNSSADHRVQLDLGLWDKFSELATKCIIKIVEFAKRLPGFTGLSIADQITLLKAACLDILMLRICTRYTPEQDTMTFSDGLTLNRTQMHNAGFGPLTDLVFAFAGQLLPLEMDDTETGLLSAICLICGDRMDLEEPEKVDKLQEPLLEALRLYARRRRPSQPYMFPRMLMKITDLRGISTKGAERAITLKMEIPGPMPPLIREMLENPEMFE
Description: as §1, §2, §3, §4, §5, §6

[3] = biological target: T3, RAR alpha (Homo sapiens, UniProt P10276); settings: stably transfected HeLa cells, versus reference antagonist, 18 hours incubation, read-out: RAR alpha Kdapp
T3 sequence (P10276 183-417 limits assumed): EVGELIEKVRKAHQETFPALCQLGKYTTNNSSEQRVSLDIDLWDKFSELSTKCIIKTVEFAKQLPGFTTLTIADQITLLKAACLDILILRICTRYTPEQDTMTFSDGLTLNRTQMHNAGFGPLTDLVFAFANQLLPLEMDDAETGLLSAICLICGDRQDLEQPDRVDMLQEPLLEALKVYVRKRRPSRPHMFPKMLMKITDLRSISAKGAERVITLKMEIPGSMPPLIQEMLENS
Description: as §1, §2, §3, §4, §5, §6

SMILES: CC1(C)CCC(C)(C)c2cc(-c3cc(-c4ccc(C(=O)O)cc4)ccc3CCCO)ccc21 [Compound 1, 4′-(3-hydroxy-propyl)-3′-(5,5,8,8-tetramethyl-5,6,7,8-tetrahydro-naphthalen-2-yl)-biphenyl-4-carboxylic acid]
- Kd [1]: 4 nM
- Kd [2]: 4 nM
- Kd [3]: 120 nM
